≈ marks a conversion by molar mass, not a printed value. Read-outs that look alike come from different tables or passages of the source. One block for each molecule: values may come before it.
Columns and labels:
[1] = system: stabilised thylakoid membranes; assay: Inhibition of photosynthetic efficiency of stabilised thylakoid membranes measured by fluorescence (F2-F1)/F2; format: biochemical, spinach
Source text: In a specific embodiment, a fluorometer continuously illuminates weakly the photosynthetic biological material with a light emitting diode (LED) emitting light at a wavelength of 475 or at 660 nm. Better results were obtained with the 475 nm wavelength. In order to obtain a higher sensitivity for measuring the photosynthetic response to toxic molecules, the intensity of the low excitation light was adjusted so as to obtain a F1 fluorescence level slightly higher than F0.
Fluorescence measured 2 sec after turning on one LED is F1. Three additional LEDs are then turned on so as to induce actinic illumination F2. Dispersion of LEDs is illustrated in FIG. 1. Light beams are oriented so as to form together a point of convergence precisely at the level where the photodiode is read. After a specific time, selected according to the nature of the thylakoid membranes used (eg. source of thylakoids, etc.) (Table 1), of the background noise and of the level of sensitivity sought, the F2 fluorescence is measured. To determine F1 and F2, the fluorometer measures wavelengths higher than 650 nm when the illumination is at 475 nm, and higher than 700 nm when illumination is at 660 nm.
The photosynthetic efficiency is determined with the following formula (F2−F1)/F2. Preferably, the photosynthetic efficiency of the stabilised thylakoids is 0.8±0.1. Any molecule affecting the photosystems modifies either F1 or F2 which modification necessarily disrupts (increases or decreases) the photosynthetic efficiency. The inhibition curve of a particular molecule is determined by calculating the activity of the photosystems in the absence of the molecule and in the presence of the molecule and comparing both efficiency as follows as described in Conrad 1993:
Without inhibitor (wi): efficiency(wi)=(F2(wi)−F1(wi))/F2(wi) With inhibitor: Relative photosynthetic efficiency(sample)=(F2(sample)−F1(sample))/F2(wi) Percentage efficiency: efficiency (%)=(efficiency(sample)×100)/efficiency(wi) Percentage inhibition: Inhibition (%)=100−efficiency (%)
The individual test tubes (100 μL lyophilised thylakoid membranes) were resuspended in 2 mL of water or tested samples. The concentrated batch of test tubes was resuspended in water, in Buffer 1 (HEPES-NaOH 50 mM pH 7.5 buffer containing sucrose 330 mM, MgCl2 20 mM, NH4Cl 10 mM, PEG 4000 4% (p/v)); or in Buffer 2 (phosphate buffer 0.1 M pH 6.5 containing sucrose 330 mM, NH4Cl 10 mM, MgCl2 20 mM, EDTA 10 mM, PEG 4000 4% (p/v)). A combination of buffered solutions 1 and 2 may also be used. […] These different buffers rs produce different results in the detection sensitivity (see Table 3 above). The final volume obtained depends on the quantity of lyophilised membranes used (2.5 mL for 25 tests, 5 mL for 50 tests).
Before use, the tubes containing stabilised thylakoid membranes were retrieved from storage. If they were stored in the freezer or the refrigerator, they were tempered 30 minutes at room temperature and in the dark. Two milliliters of fluid samples and the required volume of MgCl2 mother solution to get 0-10 mM MgCl2 (depending on tested samples) were added to 100 μL of the thylakoids membranes formulation at a concentration of 5 μg/mL. The tubes are then shook by inversion for 2 min. […]

[2] = system: Chemically immobilised thylakoids; conditions: chemically immobilised thylakoids (electrochemistry), Laberge (1999); cited from earlier work
algaes native [3] = conditions: algaes native (fluorescence), Jay (1997); cited from earlier work
algaes native [4] = conditions: algaes native (fluorescence), Conrad (1993); cited from earlier work
PSII [5] = target: T1, PSII (Thermosynechococcus vestitus, UniProt P0A444); conditions: cited from earlier work
[6] = system: Physically immobilised thylakoids; conditions: physically immobilised thylakoids (electrochemistry), Laberge (2000); cited from earlier work
PSII [7] = target: T1, PSII; conditions: PSII Clark electrode (amperometry), Koblizek (2002), cited from earlier work
[8] = Buffer 1 + 5 mM MgCl2 (in cuvette)
[9] = membranes resuspended in Buffer 1
[10] = membranes resuspended in Buffer 2
[11] = stabilised thylakoid membranes of the present invention (fluorescence)

Molecule: O=C([O-])[O-].[Ca+2] [CaCO3]
Effect (inhibition or stimulation) on thylakoid membranes [1]: Stimulation

IC50 [1, 8]: >0.1 µg/mL
IC50 [1, 9]: >1 µg/mL
IC50 [1, 10]: >4 µg/mL
Molecule: CCNc1nc(N)nc(Cl)n1 [Deisopropyl atrazine]
Threshold [1, 8]: >0.1 mg/L
Threshold [1, 9]: 0.2 mg/L
Threshold [1, 10]: 1.26 mg/L

Molecule: Phosphates
Effect (inhibition or stimulation) on thylakoid membranes [1]: Stimulation

Molecule: OO [H2O2]
Effect (inhibition or stimulation) on thylakoid membranes [1]: Inhibition

Molecule: CCNc1nc(Cl)nc(NC(C)C)n1 [Atrazine]
IC50 [2]: 330 µg/mL (≈ 1530 µM)
Threshold [2]: 0.01 to 0.05 mg/L
IC50 (algaes native [3]): 62 µg/mL (≈ 287 µM)
Threshold (algaes native [3]): 0.009 mg/L
IC50 (algaes native [4]): 150 µg/mL (≈ 695 µM)
IC50 (PSII [5]): 88.1 µM
IC50 [6]: 280 µg/mL (≈ 1300 µM)
Inhibition (%) ([1]; Biological apple juice, atrazine 0.01 μg/mL): 23%
Inhibition (%) ([1]; Biological apple juice, atrazine 0.1 μg/mL): 61%
Inhibition (%) ([1]; Biological apple juice, atrazine 4 μg/mL): 71%
IC50 [1, 8]: 0.04 µg/mL
Threshold [1, 8]: 0.001 mg/L
Inhibition (%) ([1]; Commercial apple juice (clear), pH 7, gravimetric filtration, atrazine 0.01 μg/mL): 15%
Inhibition (%) ([1]; Commercial apple juice (clear), pH 7, gravimetric filtration, atrazine 0.1 μg/mL): 60%
Inhibition (%) ([1]; Commercial apple juice (clear), pH 7, gravimetric filtration, atrazine 4 μg/mL): 74%
Inhibition (%) ([1]; Commercial apple juice (with pulp), pH 7, gravimetric filtration, atrazine 0.01 μg/mL): 23%
Inhibition (%) ([1]; Commercial apple juice (with pulp), pH 7, gravimetric filtration, atrazine 0.1 μg/mL): 58%
Inhibition (%) ([1]; Commercial apple juice (with pulp), pH 7, gravimetric filtration, atrazine 4 μg/mL): 65%
Inhibition (%) ([1]; Commercial apple juice, pH adjusted at 7, atrazine 0.01 μg/mL): 11%
Inhibition (%) ([1]; Commercial apple juice, pH adjusted at 7, atrazine 0.1 μg/mL): 61%
Inhibition (%) ([1]; Commercial apple juice, pH adjusted at 7, atrazine 4 μg/mL): 84%
Inhibition (%) ([1]; Water, atrazine 0.01 μg/mL): 16%
Inhibition (%) ([1]; Water, atrazine 0.1 μg/mL): 60%
Inhibition (%) ([1]; Water, atrazine 4 μg/mL): 80%
% effect ([1]; atrazine 0.001 mg/L): 4.2%
% effect ([1]; atrazine 0.004 mg/L): 14.9%
% effect ([1]; atrazine 0.04 mg/L): 55.3%
% effect ([1]; atrazine 0.1 mg/L): 69.4%
IC50 [1, 9]: 0.13 µg/mL
Threshold [1, 9]: 0.002 mg/L
IC50 [1, 10]: 0.33 µg/mL
Threshold [1, 10]: 0.002 mg/L
calculated inhibition ([1]; sample with initial concentration of 4 mg/L of atrazine): 64.8%
detection threshold ([1]; some of the thylakoid membranes preparations): 1 ppb
IC50 [1, 11]: 40 µg/mL
Threshold [1, 11]: 0.001 mg/L
IC50 (PSII [7]): 301 µM
Threshold (PSII [7]): 0.0004 mg/L

Molecule: N#Cc1cc(Br)c(O)c(Br)c1 [Bromoxynil]
IC50 [1, 8]: >0.1 µg/mL
Threshold [1, 8]: >0.1 mg/L
IC50 [1, 9]: 0.443 µg/mL
Threshold [1, 9]: 0.013 mg/L
IC50 [1, 10]: 0.414 µg/mL
Threshold [1, 10]: 0.06 mg/L

Molecule: CCCCCCCCCCCCCCCCCC(=O)O [Stearic acid]
Effect (inhibition or stimulation) on thylakoid membranes [1]: Stimulation

Molecule: CCNc1nc(Cl)nc(NCC)n1 [Simazine]
IC50 [1, 8]: 0.942 µg/mL
Threshold [1, 8]: 0.06 mg/L
IC50 [1, 9]: 0.028 µg/mL
Threshold [1, 9]: 0.002 mg/L

Molecule: Nitrates
Effect (inhibition or stimulation) on thylakoid membranes [1]: Weak inhibition

Molecule: [Ni+2] [Ni]
IC50 ([1]; incubation time 15 min): >100 µg/mL
Threshold limit value ([1]; incubation time 15 min): 35 mg/L
IC50 ([1]; incubation time 30 min): >100 µg/mL
Threshold limit value ([1]; incubation time 30 min): 7.1 mg/L
IC50 ([1]; incubation time 60 min): >100 µg/mL
Threshold limit value ([1]; incubation time 60 min): 7.1 mg/L

Molecule: Ammoniacal nitrogen
Effect (inhibition or stimulation) on thylakoid membranes [1]: Stimulation

Molecule: [Hg+2] [Hg]
IC50 ([1]; incubation time 15 min): 2.5 µg/mL
Threshold limit value ([1]; incubation time 15 min): 0.7 mg/L
IC50 ([1]; incubation time 30 min): 2.0 µg/mL
Threshold limit value ([1]; incubation time 30 min): 0.35 mg/L
IC50 ([1]; incubation time 60 min): 2.0 µg/mL
Threshold limit value ([1]; incubation time 60 min): 0.35 mg/L

Molecule: CCNc1nc(Cl)nc(NC(C)(C)C#N)n1 [Cyanazine]
IC50 [2]: 79 µg/mL (≈ 328 µM)
IC50 [6]: 310 µg/mL (≈ 1290 µM)
IC50 [1, 8]: 0.028 µg/mL
Threshold [1, 8]: 0.0006 mg/L
IC50 [1, 9]: 0.009 µg/mL
Threshold [1, 9]: 0.002 mg/L
IC50 [1, 10]: 0.135 µg/mL
Threshold [1, 10]: 0.013 mg/L
IC50 [1, 11]: 40 µg/mL

Molecule: [Zn+2] [Zn]
IC50 ([1]; incubation time 15 min): >100 µg/mL
Threshold limit value ([1]; incubation time 15 min): 16 mg/L
IC50 ([1]; incubation time 30 min): 70 µg/mL
Threshold limit value ([1]; incubation time 30 min): 16 mg/L
IC50 ([1]; incubation time 60 min): 34 µg/mL
Threshold limit value ([1]; incubation time 60 min): 7.1 mg/L

Molecule: CCC(=O)Nc1ccc(Cl)c(Cl)c1 [Propanil]
IC50 [1, 8]: 0.068 µg/mL
Threshold [1, 8]: 0.0006 mg/L
IC50 [1, 9]: 0.179 µg/mL
Threshold [1, 9]: 0.002 mg/L
IC50 [1, 10]: 0.221 µg/mL
Threshold [1, 10]: 0.013 mg/L

IC50 [1, 8]: 1.1 µg/mL
IC50 [1, 9]: 1.08 µg/mL
IC50 [1, 10]: 2.31 µg/mL
Molecule: CC(C)Nc1nc(N)nc(Cl)n1 [Desethyl atrazine]
Threshold [1, 8]: 0.2 mg/L
Threshold [1, 9]: 0.013 mg/L
Threshold [1, 10]: 0.2 mg/L

Molecule: [Cl-].[Na+] [NaCl]
Effect (inhibition or stimulation) on thylakoid membranes [1]: Stimulation

Molecule: CCCCCCCC/C=C\CCCCCCCC(=O)O [Oleic acid]
Effect (inhibition or stimulation) on thylakoid membranes [1]: Inhibition

Molecule: CN(C)C(=O)Nc1ccc(Cl)c(Cl)c1 [Diuron]
IC50 [2]: 120 µg/mL (≈ 515 µM)
Threshold [2]: 0.01 mg/L
IC50 (algaes native [3]): 12 µg/mL (≈ 51.5 µM)
Threshold (algaes native [3]): 0.002 mg/L
IC50 (algaes native [4]): 959 µg/mL (≈ 4110 µM)
IC50 (PSII [5]): 686 µM
IC50 [6]: 130 µg/mL (≈ 558 µM)
IC50 [1, 8]: 0.011 µg/mL
Threshold [1, 8]: 0.002 mg/L
IC50 [1, 9]: 0.022 µg/mL
Threshold [1, 9]: 0.0006 mg/L
IC50 [1, 10]: 0.02 µg/mL
Threshold [1, 10]: <0.001 mg/L
IC50 [1, 11]: 71 µg/mL
Threshold [1, 11]: 0.002 mg/L
Threshold (PSII [7]): 0.0001 mg/L
IC50 (PSII [7]; read-out: IC50 (converted)): 81.5 µM

Molecule: CC(C)N1C(=O)c2ccccc2NS1(=O)=O [Bentazon]
IC50 [1, 8]: >4 µg/mL
Threshold [1, 8]: >4 mg/L
IC50 [1, 9]: >4 µg/mL
Threshold [1, 9]: 2 mg/L
IC50 [1, 10]: >4 µg/mL
Threshold [1, 10]: 1.22 mg/L

Reference: US8303907B2, “Biosensors, and method and kits for using same” (priority 2002, dated 2012)
